Converted amounts (≈) assume the structure as drawn.
The compounds below were run on Haemophilus influenzae (assay: Antimicrobial activity against Haemophilus influenzae ATCC 49247 after 20 hrs by broth microdilution method). Conditions: ATCC 49247, 20 h.
Assay type: functional

Row | Structure (SMILES) | MIC
1 | CCc1[nH]c(C(=O)N[C@@H]2CCN(c3nnc(C(C)(C)O)s3)C[C@@H]2OC)nc1Cl | 0.5 µg/mL (≈ 1.17 µM)
2 | CCO[C@H]1CN(c2nnc(C(C)O)s2)CC[C@H]1NC(=O)c1nc(Cl)c(CC)[nH]1 (some centres undefined) | 2 µg/mL (≈ 4.66 µM)

Other lines, results leading:

Row | MIC | Structure (SMILES)
3 | 1 µg/mL (≈ 2.41 µM) | CCc1[nH]c(C(=O)N[C@@H]2CCN(c3nnc([C@H](C)O)s3)C[C@@H]2OC)nc1Cl
4 | 1 µg/mL (≈ 2.41 µM) | CCc1[nH]c(C(=O)N[C@@H]2CCN(c3nnc([C@@H](C)O)s3)C[C@@H]2OC)nc1Cl

The compounds below were run on Streptococcus pneumoniae (assay: Antimicrobial activity against Streptococcus pneumoniae ATCC 49619 after 20 hrs by broth microdilution method). Conditions: ATCC 49619, 20 h.
Assay type: functional

Row | Structure (SMILES) | MIC
5 | CCc1[nH]c(C(=O)N[C@@H]2CCN(c3nnc(C(C)(C)O)s3)C[C@@H]2OC)nc1Cl | 0.25 µg/mL (≈ 0.583 µM)
6 | CCO[C@H]1CN(c2nnc(C(C)O)s2)CC[C@H]1NC(=O)c1nc(Cl)c(CC)[nH]1 (some centres undefined) | 0.25 µg/mL (≈ 0.583 µM)

The remaining lines, values ahead:

Row | MIC | Structure (SMILES)
7 | 0.25 µg/mL (≈ 0.603 µM) | CCc1[nH]c(C(=O)N[C@@H]2CCN(c3nnc([C@H](C)O)s3)C[C@@H]2OC)nc1Cl
8 | 0.25 µg/mL (≈ 0.603 µM) | CCc1[nH]c(C(=O)N[C@@H]2CCN(c3nnc([C@@H](C)O)s3)C[C@@H]2OC)nc1Cl

These compounds were tested on Clostridioides difficile (assay: Antimicrobial activity against Clostridioides difficile ATCC 43255 under anaerobic condition for 42 to 48 hrs by agar dilution method). Conditions: not given.
Assay type: functional

Row | Structure (SMILES) | MIC
9 | CCc1[nH]c(C(=O)N[C@@H]2CCN(c3nnc(C(C)(C)O)s3)C[C@@H]2OC)nc1Cl | 0.06 µg/mL (≈ 0.14 µM)
10 | CCO[C@H]1CN(c2nnc(C(C)O)s2)CC[C@H]1NC(=O)c1nc(Cl)c(CC)[nH]1 (some centres undefined) | 0.03 µg/mL (≈ 0.0699 µM)
11 | CCc1[nH]c(C(=O)N[C@@H]2CCN(c3nnc([C@@](C)(O)CO)s3)C[C@@H]2OC)nc1Cl | 0.06 µg/mL (≈ 0.135 µM)
12 | CCc1[nH]c(C(=O)N[C@@H]2CCN(c3nnc([C@@H](O)CO)s3)C[C@@H]2OC)nc1Cl | 0.125 µg/mL (≈ 0.29 µM)

Continued, values first:

Row | MIC | Structure (SMILES)
13 | 0.125 µg/mL (≈ 0.301 µM) | CCc1[nH]c(C(=O)N[C@@H]2CCN(c3nnc([C@H](C)O)s3)C[C@@H]2OC)nc1Cl
14 | 0.06 µg/mL (≈ 0.145 µM) | CCc1[nH]c(C(=O)N[C@@H]2CCN(c3nnc([C@@H](C)O)s3)C[C@@H]2OC)nc1Cl

What follows are compounds tested on Staphylococcus aureus (assay: Antimicrobial activity against Staphylococcus aureus ATCC 29213 after 20 hrs by broth microdilution method). Conditions: ATCC 29213, 20 h.
Assay type: functional

Row | Structure (SMILES) | MIC
15 | CCc1[nH]c(C(=O)N[C@@H]2CCN(c3nnc(C(C)(C)O)s3)C[C@@H]2OC)nc1Cl | 0.25 µg/mL (≈ 0.583 µM)
16 | CCO[C@H]1CN(c2nnc(C(C)O)s2)CC[C@H]1NC(=O)c1nc(Cl)c(CC)[nH]1 (some centres undefined) | 0.5 µg/mL (≈ 1.17 µM)
17 | CCc1[nH]c(C(=O)N[C@@H]2CCN(c3nnc([C@@](C)(O)CO)s3)C[C@@H]2OC)nc1Cl | 1 µg/mL (≈ 2.25 µM)
18 | CCc1[nH]c(C(=O)N[C@@H]2CCN(c3nnc([C@@H](O)CO)s3)C[C@@H]2OC)nc1Cl | 4 µg/mL (≈ 9.28 µM)

Now from value to compound:

Row | MIC | Structure (SMILES)
19 | 0.5 µg/mL (≈ 1.21 µM) | CCc1[nH]c(C(=O)N[C@@H]2CCN(c3nnc([C@H](C)O)s3)C[C@@H]2OC)nc1Cl
20 | 0.5 µg/mL (≈ 1.21 µM) | CCc1[nH]c(C(=O)N[C@@H]2CCN(c3nnc([C@@H](C)O)s3)C[C@@H]2OC)nc1Cl

What follows are compounds tested on Enterococcus faecalis (assay: Antimicrobial activity against Enterococcus faecalis ATCC 29212 after 20 hrs by broth microdilution method). Conditions: ATCC 29212, 20 h.
Assay type: functional

Row | Structure (SMILES) | MIC
21 | CCc1[nH]c(C(=O)N[C@@H]2CCN(c3nnc(C(C)(C)O)s3)C[C@@H]2OC)nc1Cl | 0.25 µg/mL (≈ 0.583 µM)
22 | CCO[C@H]1CN(c2nnc(C(C)O)s2)CC[C@H]1NC(=O)c1nc(Cl)c(CC)[nH]1 (some centres undefined) | 0.25 µg/mL (≈ 0.583 µM)

Continued, values first:

Row | MIC | Structure (SMILES)
23 | 0.25 µg/mL (≈ 0.603 µM) | CCc1[nH]c(C(=O)N[C@@H]2CCN(c3nnc([C@H](C)O)s3)C[C@@H]2OC)nc1Cl
24 | 0.25 µg/mL (≈ 0.603 µM) | CCc1[nH]c(C(=O)N[C@@H]2CCN(c3nnc([C@@H](C)O)s3)C[C@@H]2OC)nc1Cl

— ChEMBL document CHEMBL4020808, “Inhibitors of DNA Gyrase-GyrB Subunit and/or Topoisomerase IV-ParE Subunit May Treat Infectious Diseases Caused by Antibiotic-Resistant Bacteria” (2017)
